Test results from patent US5502035A, “N-terminus modified analogs of LHRH” (Tap Holdings Inc., priority 1994, dated 1996).
Non-standard residues stand in square brackets, D forms with d. Residues, ends and D or L forms follow the SMILES beside them. Groups on a side chain read outwards from the residue. *: point of attachment. NMePhe(4-NO2) = CN[C@@H](Cc1ccc([N+](=O)[O-])cc1)C(=O)O; Shikimoyl = O=C(C1=C[C@@H](O)[C@@H](O)[C@H](O)C1)*; dPhe(4-Cl) = N[C@H](Cc1ccc(Cl)cc1)C(=O)O; d1Nal = N[C@H](Cc1cccc2ccccc12)C(=O)O; d2Nal = N[C@H](Cc1ccc2ccccc2c1)C(=O)O; d(hCit) = NC(=O)NCCCC[C@@H](N)C(=O)O; Lys(iPr) = CC(C)NCCCC[C@H](N)C(=O)O; NMeY = CN[C@@H](Cc1ccc(O)cc1)C(=O)O; dCit = NC(=O)NCCC[C@@H](N)C(=O)O; hArg = N=C(N)NCCCC[C@H](N)C(=O)O; d3Pal = N[C@H](Cc1cccnc1)C(=O)O; Nicotinoyl = O=C(c1cccnc1)*; X1 = O=C([C@@H]1CCCO1)*; GABA = NCCCC(=O)O

Target: T1, LHRH (Rattus norvegicus, UniProt P30969)
T1 construct: endogenous in cells; host or cells: rat pituitary cells (own knowledge of the cited Haviv 1989 method)
T1 sequence (P30969 1-327): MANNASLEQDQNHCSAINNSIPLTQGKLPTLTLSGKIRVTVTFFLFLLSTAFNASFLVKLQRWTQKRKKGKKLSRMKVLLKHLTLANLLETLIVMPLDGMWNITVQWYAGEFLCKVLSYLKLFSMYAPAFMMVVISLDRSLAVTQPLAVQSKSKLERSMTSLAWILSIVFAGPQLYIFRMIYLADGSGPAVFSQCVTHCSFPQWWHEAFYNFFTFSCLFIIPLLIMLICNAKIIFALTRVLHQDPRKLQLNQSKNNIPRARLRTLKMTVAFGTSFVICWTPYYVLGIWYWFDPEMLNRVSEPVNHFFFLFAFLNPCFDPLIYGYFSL
Test: in vitro test for LHRH antagonist potency (pA2)
Type: cell-based
Settings: negative logarithm of the antagonist concentration required to shift the response curve produced by the agonist leuprolide to two-fold higher concentration
Description: Representative compounds of the present invention were evaluated in an in vitro test for LHRH antagonist potency (pA2). The test employed the method detailed in F. Haviv, et al. J. Med. Chem., 32:2340-2344 (1989). The values of pA2 are the negative logarithms of the concentration of the particular antagonist test compound required to shift the response curve produced by the agonist leuprolide to two-fold higher concentration. (Leuprolide is the LHRH agonist having the structure 5-oxo-Pro^1 -His^2 -Trp^3 -Ser^4 -Tyr^5 -D-Leu^6 -Leu^7 -Arg^8 -Pro^9 -NHEt and is disclosed and claimed in U.S. Pat. No. 4,005,063.) Typically pA2 values of 9.5 or greater are indicative of good LHRH antagonist potency, with values of 10.0 or greater being preferred.

SMILES | Kb [nM]
CC(C)C[C@H](NC(=O)[C@@H](CCCCNC(=O)C1=C[C@@H](O)[C@@H](O)[C@H](O)C1)NC(=O)[C@H](Cc1ccc(O)cc1)N(C)C(=O)[C@H](CO)NC(=O)[C@@H](Cc1cccc2ccccc12)NC(=O)[C@@H](Cc1ccc(Cl)cc1)NC(=O)[C@@H](Cc1ccc2ccccc2c1)NC(=O)CNC(=O)C1=C[C@@H](O)[C@@H](O)[C@H](O)C1)C(=O)N[C@@H](CCCNC(=N)N)C(=O)N1CCC[C@H]1C(=O)N[C@H](C)C(N)=O [Example 16, N-Shikimyl-Gly-D2Nal-D4ClPhe-D 1Nal-Ser-NMeTyr-DLys(Shik)-Leu-Arg-Pro-DAlaNH2] (Shikimoyl-G[d2Nal][dPhe(4-Cl)][d1Nal]S[NMeY][dK](Shikimoyl)LRP[dA]-NH2) | 0.0288
CC(C)C[C@H](NC(=O)[C@@H](CCCCNC(=O)c1cccnc1)NC(=O)[C@H](Cc1ccc(O)cc1)N(C)C(=O)[C@H](CO)NC(=O)[C@@H](Cc1cccnc1)NC(=O)[C@@H](Cc1ccc(Cl)cc1)NC(=O)[C@@H](Cc1ccc2ccccc2c1)NC(=O)CNC(=O)c1cccnc1)C(=O)N[C@@H](CCCCNC(C)C)C(=O)N1CCC[C@H]1C(=O)N[C@H](C)C(N)=O [Example 2f, N-Nicotinyl-Gly-D2Nal-D4ClPhe-D3Pal-Ser-NMeTyr-DLys(N-epsilon-Nicotinyl) -Leu-Lys(N-epsilon-Isopropyl)-Pro-DAlaNH2] (Nicotinoyl-G[d2Nal][dPhe(4-Cl)][d3Pal]S[NMeY][dK](Nicotinoyl)L[Lys(iPr)]P[dA]-NH2) | 0.00891
CC(C)C[C@H](NC(=O)[C@@H](CCCNC(N)=O)NC(=O)[C@H](Cc1ccc(O)cc1)N(C)C(=O)[C@H](CO)NC(=O)[C@@H](Cc1cccnc1)NC(=O)[C@@H](Cc1ccc(Cl)cc1)NC(=O)[C@@H](Cc1ccc2ccccc2c1)NC(=O)CNC(=O)C1=C[C@@H](O)[C@@H](O)[C@H](O)C1)C(=O)N[C@@H](CCCNC(=N)N)C(=O)N1CCC[C@H]1C(=O)N[C@H](C)C(N)=O [Example 13b, N-Shikimyl-Gly-D2Nal-D4ClPhe-D3Pal-Ser-NMeTyr-DCit-Leu-Arg-Pro-DAlaNH2] (Shikimoyl-G[d2Nal][dPhe(4-Cl)][d3Pal]S[NMeY][dCit]LRP[dA]-NH2) | 0.00955
CC(C)C[C@H](NC(=O)[C@@H](CCCCNC(=O)c1cccnc1)NC(=O)[C@H](Cc1ccc(O)cc1)N(C)C(=O)[C@H](CO)NC(=O)[C@@H](Cc1cccnc1)NC(=O)[C@@H](Cc1ccc(Cl)cc1)NC(=O)[C@@H](Cc1ccc2ccccc2c1)NC(=O)CNC(=O)[C@@H]1CCCO1)C(=O)N[C@H](CCCCNC(C)C)C(=O)N1CCC[C@H]1C(=O)N[C@H](C)C(N)=O [Example 89, N (S)-2-Tetrahydrofuroyl-Gly-D2Nal-D4ClPhe-D3Pal-Ser-NMeTyr-DLys(N-epsilon-Nicotinyl) -Leu-DLys(N-epsilon-Isopropyl)-Pro-DAlaNH2] | 0.132
CC[C@H](C)[C@H](NC(=O)[C@@H](CCCCNC(=O)C1=C[C@@H](O)[C@@H](O)[C@H](O)C1)NC(=O)[C@H](Cc1ccc(O)cc1)N(C)C(=O)[C@H](CO)NC(=O)[C@@H](Cc1cccnc1)NC(=O)[C@@H](Cc1ccc(Cl)cc1)NC(=O)[C@@H](Cc1ccc2ccccc2c1)NC(=O)CNC(=O)C1=C[C@@H](O)[C@@H](O)[C@H](O)C1)C(=O)N[C@@H](CCCNC(=N)N)C(=O)N1CCC[C@H]1C(=O)N[C@H](C)C(N)=O [Example 18a, N-Shikimyl-Gly-D2Nal-D4ClPhe-D3Pal-Ser-NMeTyr-DLys(Shik)-Ile-Arg-Pro-DAlaNH2] (Shikimoyl-G[d2Nal][dPhe(4-Cl)][d3Pal]S[NMeY][dK](Shikimoyl)IRP[dA]-NH2) | 0.0166
CC(C)C[C@H](NC(=O)[C@@H](CCCCNC(=O)C1=C[C@@H](O)[C@@H](O)[C@H](O)C1)NC(=O)[C@H](Cc1ccc([N+](=O)[O-])cc1)N(C)C(=O)[C@H](CO)NC(=O)[C@@H](Cc1cccnc1)NC(=O)[C@@H](Cc1ccc(Cl)cc1)NC(=O)[C@@H](Cc1ccc2ccccc2c1)NC(=O)CNC(=O)c1cccnc1)C(=O)N[C@@H](CCCCNC(=N)N)C(=O)N1CCC[C@H]1C(=O)N[C@H](C)C(N)=O [Example 26b, N-Nicotinyl-Gly-D2Nal-D4ClPhe-D3Pal-Ser-NMePhe(NO2)-DLys(Shik)-Leu-Harg-Pro-DAlaNH2] (Nicotinoyl-G[d2Nal][dPhe(4-Cl)][d3Pal]S[NMePhe(4-NO2)][dK](Shikimoyl)L[hArg]P[dA]-NH2) | 0.0437
CC(C)C[C@H](NC(=O)[C@@H](CCCCNC(=O)CNC(=O)C1=C[C@@H](O)[C@@H](O)[C@H](O)C1)NC(=O)[C@H](Cc1ccc(O)cc1)N(C)C(=O)[C@H](CO)NC(=O)[C@@H](Cc1cccnc1)NC(=O)[C@@H](Cc1ccc(Cl)cc1)NC(=O)[C@@H](Cc1ccc2ccccc2c1)NC(=O)CNC(=O)C1=C[C@@H](O)[C@@H](O)[C@H](O)C1)C(=O)N[C@@H](CCCNC(=N)N)C(=O)N1CCC[C@H]1C(=O)N[C@H](C)C(N)=O [Example 15d, N-Shikimyl-Gly-D2Nal-D4ClPhe-D3Pal-Ser-NMeTyr-DLys(Gly-Shik)-Leu-Arg-Pro-DAlaNH2] (Shikimoyl-G[d2Nal][dPhe(4-Cl)][d3Pal]S[NMeY][dK]([Gly-Shikimoyl])LRP[dA]-NH2) | 0.0178
CC(C)C[C@H](NC(=O)[C@@H](CCCCNC(=O)c1cccnc1)NC(=O)[C@H](Cc1ccc(O)cc1)N(C)C(=O)[C@H](CO)NC(=O)[C@@H](Cc1cccnc1)NC(=O)[C@@H](Cc1ccc(Cl)cc1)NC(=O)[C@@H](Cc1ccc2ccccc2c1)NC(=O)CNC(=O)[C@@H]1CCCO1)C(=O)N[C@@H](CCCCNC(C)C)C(=O)N1CCC[C@H]1C(=O)N[C@@H](C)C(N)=O [Example 80, N-(S)-2-Tetrahydrofuroyl-Gly-D2Nal-D4ClPhe-D3Pal-Ser-NMeTyr-DLys(N-epsilon- Nicotinyl) -Leu-Lys(N-epsilon-Isopropyl)-Pro-AlaH2] | 0.0126
CC(C)C[C@H](NC(=O)[C@@H](CCCCNC(=O)c1cccnc1)NC(=O)[C@H](Cc1ccc(O)cc1)N(C)C(=O)[C@H](CO)NC(=O)[C@@H](Cc1cccnc1)NC(=O)[C@@H](Cc1ccc(Cl)cc1)NC(=O)[C@@H](Cc1ccc2ccccc2c1)NC(=O)CCCNC(=O)C1=C[C@@H](O)[C@@H](O)[C@H](O)C1)C(=O)N[C@@H](CCCCNC(C)C)C(=O)N1CCC[C@H]1C(=O)N[C@H](C)C(N)=O [Example 6d, N-Shikimyl-4-Aminobutyryl-D2Nal-D4ClPhe-D3Pal-Ser-NMeTyr-DLys(N-epsilon-Nicotinyl) -Leu-Lys(N-epsilon-Isopropyl)-Pro-DAlaNH2] ({Shikimoyl-GABA}-[d2Nal][dPhe(4-Cl)][d3Pal]S[NMeY][dK](Nicotinoyl)L[Lys(iPr)]P[dA]-NH2) | 0.0126
CC(C)C[C@H](NC(=O)[C@@H](CCCCNC(=O)C1=C[C@@H](O)[C@@H](O)[C@H](O)C1)NC(=O)[C@H](Cc1ccc(O)cc1)N(C)C(=O)[C@H](CO)NC(=O)[C@@H](Cc1cccnc1)NC(=O)[C@@H](Cc1ccc(Cl)cc1)NC(=O)[C@@H](Cc1ccc2ccccc2c1)NC(=O)[C@@H](CCCCNC(=O)C1=C[C@@H](O)[C@@H](O)[C@H](O)C1)NC(=O)c1cccnc1)C(=O)N[C@@H](CCCNC(=N)N)C(=O)N1CCC[C@H]1C(=O)N[C@H](C)C(N)=O [Example 14i, N-Nicotinyl-DLys(Shik)-D2Nal-D4ClPhe-D3Pal-Ser-NMeTyr-DLys(Shik)-Leu-Arg-Pro-DAlaNH2] (Nicotinoyl-[dK](Shikimoyl)[d2Nal][dPhe(4-Cl)][d3Pal]S[NMeY][dK](Shikimoyl)LRP[dA]-NH2) | 0.339
CC(C)C[C@H](NC(=O)[C@@H](CCCCNC(N)=O)NC(=O)[C@H](Cc1ccc(O)cc1)N(C)C(=O)[C@H](CO)NC(=O)[C@@H](Cc1cccnc1)NC(=O)[C@@H](Cc1ccc(Cl)cc1)NC(=O)[C@@H](Cc1ccc2ccccc2c1)NC(=O)CNC(=O)[C@@H]1CCCO1)C(=O)N[C@@H](CCCCNC(C)C)C(=O)N1CCC[C@H]1C(=O)N[C@H](C)C(N)=O [Example 92, N (S)-2-Tetrahydrofuroyl-Gly-D2Nal-D4ClPhe-D3Pal-Ser-NMeTyr-DHcit-Leu-Lys(N- epsilon-Isopropyl) -Pro-DAlaNH2] (X1-G[d2Nal][dPhe(4-Cl)][d3Pal]S[NMeY][d(hCit)]L[Lys(iPr)]P[dA]-NH2) | 0.0105
CC(C)C[C@H](NC(=O)[C@@H](CCCCNC(=O)c1cccnc1)NC(=O)[C@H](Cc1ccc(O)cc1)N(C)C(=O)[C@H](CO)NC(=O)[C@@H](Cc1cccnc1)NC(=O)[C@@H](Cc1ccc(Cl)cc1)NC(=O)[C@@H](Cc1ccc2ccccc2c1)NC(=O)[C@@H](CO)NC(=O)C1=C[C@@H](O)[C@@H](O)[C@H](O)C1)C(=O)N[C@@H](CCCCNC(C)C)C(=O)N1CCC[C@H]1C(=O)N[C@H](C)C(N)=O [Example 7, N-Shikimyl-DSer-D2Nal-D4ClPhe-D3Pal-Ser-NMeTyr-DLys(N-epsilon-Nicotinyl) -Leu-Lys(N-epsilon-Isopropyl)-Pro-DAlaNH2] (Shikimoyl-[dS][d2Nal][dPhe(4-Cl)][d3Pal]S[NMeY][dK](Nicotinoyl)L[Lys(iPr)]P[dA]-NH2) | 0.0263
